Assay results published in patent US20140148500A1, “PROGRAMMABLE SELF-ASSEMBLED NANOSTRUCTURES BASED ON SIDECHAIN-MODIFIED PNA FOR THE MULTIVALENT DISPLAY OF LIGANDS” (priority 2010, published 2014).
Several values for one entry are separate records, joined by “and”; a condition that tells them apart may be missing. Identical values can stand only once.

Tested on: C32 cells
Assay: Cell adhesion assay, IC50 of multivalent RGD constructs (method of Sipes et al.)
Type: cell-based
Conditions: read-out: IC50 Data (nM), RGD control result in parenthesis, unnormalized, control run alongside the data point it follows
Excerpt: Multi 1 indicates one PNA construct associated with the DNA. Multi 2 indicates two PNA construct associated with the DNA and so on. […] In the constructs depicted herein, the designator in parentheses (T5, for example) represents the number of thymine bases in the DNA sequence that is inserted to create a spacer between adjacent PNA binding portions of the DNA. T0 represents the absence of any spacer thymine bases. […] “x” indicates no data is available for that experiment. […] Constructs from Example 5 were utilized herein.

## N=C(N)NCCC[C@@H]1NC(=O)[C@H](CCCCN)NC(=O)[C@@H](Cc2ccccc2)NC(=O)[C@H](CC(=O)O)NC(=O)CNC1=O [RGD]
  IC50: 475 nM and 329 nM and 690 nM
